doi:10.1101/611376v1 (biorxiv, 2019)

Biological target: human insulin (hINS) (Homo sapiens, UniProt P01308)
Experiment: isothermal titration calorimetry
Format: binding

human insulin (hINS), sequence (P01308 25-54): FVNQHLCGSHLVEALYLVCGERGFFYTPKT
human insulin (hINS), sequence (P01308 90-110): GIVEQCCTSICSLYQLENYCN

Kd: 12.8 µM
Structure (SMILES): Oc1ccc(/C=C/c2cc(O)cc(O)c2)cc1 [resveratrol, trans-3,4,5-trihydroxystilbene]
